Patent publication US4939133A, “N-substituted-2-hydroxy-α-oxo-benzeneacetamides and pharmaceutical compositions having activity as modulators of the arachidonic acid cascade” (Warner-Lambert Company, priority 1985, dated 1990)

Target: Human Leukocyte Lipoxygenase
Experiment: Human Leukocyte Lipoxygenase Assay (LDA-H / LDAH)
Format: biochemical
Conditions: 50% reduction of reaction rate vs control, E -number means X 10^-no.
Method: Human Leukocyte Lipoxygenase Assay (LDA-H)
Whole blood is collected from normal volunteers and spun in a refrigerated centrifuge for four minutes at 1°-6° C. at 3800 g. The buffy coat is manually separated and washed twice with chilled 0.83% NH4 Cl and centrifuged at 1000 RPM for ten minutes at 4° C. The white cell is suspended in culture media-EMEM supplemented with 6% Agamma human serum, tricine buffer, and neomycin and recentrifuged at 1000 g to yield a pellet containing the leukocytes used for the preparation of the acetone pentane powder.
The acetone-pentane powder is prepared utilizing a modification of the procedure reported for human platelet lipoxygenase. See Siegel, et al, Arachidonate Metabolism via Lipoxygenase and 12-L-hydroperoxy-5-Eicostetraenoic acid Peroxidase Sensitive to Antiinflammatory Drugs, Proc. Natl. Acad. Sci., USA 77:308, 1980 and D. P. Wallach and V. R. Brown, a novel Preparation of Human Platlet Lipoxygenase, Biochem. Biophys. Acta. 663:361, 1981. Buffy coat prepared above is resuspended in 5-7 volumes of cold 0.1M Tris buffer, pH 7.4 containing 0.154M NaCl. The suspension is centrifuged at 13,300 g for ten minutes at 4° C. The resultant pellet was retained, resuspended in five volumes of cold acetone, recentrifuged at 13,300 g and resuspended in five volumes of cold pentane. The pentane suspension is centrifuged for ten minutes at 13,300 g to give a pellet which is dried in the cold under vacuum with periodic pulverization. The dry powder is stable for several weeks when stored at -88° C.
Enzyme stock solution is prepared in the following manner. About 15 mg of the acetone-pentane powder sis suspended in 4 ml of cold tris buffer (0.1M, pH 7.4), allowed to stand for five minutes, and homogenized thorougly. The homogenate is sonicated three times for 15 seconds each time, diluted to 7 ml with cold tris buffer (0.1M, pH 7.4), and centrifuged at 4° C. for 60 minutes at 13,300 g. The supernatent is retained and diluted to a total of 10 ml with cold tris buffer (0.1M, pH 7.4) to give the stck enzyme solution. Additional dilutions of 2-50 fold are done as necessary to locate optimal enzyme reaction rate in the assay described below.
Substrate solution is prepared at 100 μM or 1.0 μM concentrations of arachidonic acid or linoleic acid in 0.1M tris buffer, pH 9.0 containing 20% ethanol.
The enzyme reaction is followed spectrophotometrically by the appearance of a conjugated diene product at 234 nm. The reaction is monitored at 24° C. using a Gilford Model 2600 spectrophotometer. […] The effects of inhibitors on the reaction are compared with control reactions run under indentical conditions. Routinely, each compounds of the present invention is incubated with the enzyme for five minutes prior to addition of substrate to initiate the reaction. Inhibition expressed as IC50 as molar concentration of the compound required to reduce reaction rate to 50% control.

IC50: 14 µM
SMILES: COc1ccc(CCc2ccc(NC(=O)c3ccc(C)cc3O)cc2)cc1OC [Example 46, N-[4-[2-(3,4-Dimethoxyphenyl)ethyl]phenyl]-2-hydroxy-4-methylbenzamide]
